{"source": "patent US20190290631A1", "about": "“PHARMACEUTICAL COMPOSITION COMPRISING RAPAMYCIN OR DERIVATIVE THEREOF” (NIPPON KAYAKU KABUSHIKI KAISHA, priority 2016, published 2019)", "assay": "Purity of everolimus in ethanol solution", "type": "physicochemical", "conditions": "dissolved in ethanol, 3 hours/25° C.", "experimental": "However, since an aqueous solution of a coating agent needs to be used in order to prepare such a film-coated tablet, the aforementioned method cannot be applied to drugs having low chemical stability against aqueous solvents. […] For example, everolimus as a rapamycin derivative has physical properties, by which when it is dissolved in ethanol to prepare an ethanol solution thereof, its purity is decreased by 4% or more under conditions of 3 hours/25° C. As such, it is not preferable that a film coating technique involving the use of an aqueous solvent be applied, as a pharmaceutical formulation of light-resistant preparations, to a pharmaceutical product tablet comprising, as an active ingredient, rapamycin and a derivative thereof.", "data": [{"smiles": "CO[C@H]1C[C@@H]2CC[C@@H](C)[C@@](O)(O2)C(=O)C(=O)N2CCCC[C@H]2C(=O)O[C@H]([C@H](C)C[C@@H]2CC[C@@H](OCCO)[C@H](OC)C2)CC(=O)[C@H](C)/C=C(\\C)[C@@H](O)[C@@H](OC)C(=O)[C@H](C)C[C@H](C)/C=C/C=C/C=C/1C", "note": "[everolimus, 40-O-(2-hydroxyethyl)rapamycin]", "values": [{"measurement": "decrease in purity in ethanol solution", "value": "≥ 4", "unit": "%"}]}]}
